Assay results published in PMC9977398, “Next-generation membrane-active glycopeptide antibiotics that also inhibit bacterial cell division” (Chemical Science, 2023).
Values after ≈ are worked out from the molar mass of the structure shown. Read-outs that look alike come from different tables or passages of the source.

Experiments:
B. subtilis = assay: Cell wall biosynthesis inhibition assay (bubble assay); type: cell-based; conditions: treatment at PEC
Procedure: To further study the mechanisms contributing to the growth retardation, microscopic studies were carried out upon treatment of B. subtilis with compounds. Upon inhibition of cell wall biosynthesis, holes are formed in the peptidoglycan layer where new cell wall material is no longer incorporated. The cytoplasmic membrane extrudes out of these perforations, appearing as bubbles on the cell surface when treated with a 1 : 3 mixture of acetic acid and methanol.[30] […]
and the untreated control were carefully removed from the well, washed with 0.9 % saline, and placed on glass slides. The biofilms were then stained with 10 μL of SYTO9 (60μM) and imaged using a Zeiss 510 Meta confocal laser-scanning microscope. The orthogonal projections of the images were processed with LSM 5 Image examiner. The experiment was performed three times independently and the image provided is representative of these.
(§1) Determination of MIC against B. subtilis
(§2) Overnight cultures of B. subtilis 168 were grown in 50 mL flasks in 5 mL BMM media. The bacteria in the mid-log phase were then incubated with compounds for 18 h at 37 ̊C in BMM media. The MIC was determined as the lowest concentration at which no visible bacterial OD […]
Determination of Physiologically Effective Concentration7
Overnight cultures of B. subtilis 168 were grown in 50 mL flasks with 10 mL of media. Upon growing to mid-log phase (an OD500 between 0.5 and 1), bacteria was inoculated in 100mL BMM in a 500 ml flask. When the cultures reach an OD500 of 0.35, the bacteria is aliquoted into separate conicals (50 mL) with 5 ml and compounds are added. The O.D. of the solutions are recorded every 30 minutes. The concentration which retards the growth of bacteria was selected as the PEC. The experiments were performed two times independently and the images are representative of results from two independent experiments. The experiment was done together with the compound published in (J. Med. Chem. 64, 2021, 10185) and therefore the graph for vancomycin is the same.
Cell wall biosynthesis inhibition assay or Bubble assay […]

B. subtilis 168 = assay: Determination of MIC against B. subtilis; type: cell-based; conditions: read-out: MIC against B. subtilis
Procedure: as §1, §2
Overnight bacterial cultures were inoculated in BMM and allowed to grow to an OD 500 of 0.35. 200 µL of the bacterial culture were incubated with compounds at 37 ̊C for 15 minutes. […]
BAC Light assay or pore formation assay
0.35. 500 µL of the bacteria was then incubated with the compounds at their respective PECSs for 10 mins in the same media at 37 ̊C. The compound was then centrifuged at 13200 rpm and […]

[1] = system: stationary phase cells of MRSA; assay: Antibacterial activity against stationary phase bacteria; type: cell-based, S. aureus; conditions: for time to complete eradication: stationary phase MRSA
Procedure: The stationary phase cells and persister cells are metabolically repressed and phenotypically different from the log-phase cells.[27] For activity, the commonly used drugs, vancomycin, and linezolid require actively ongoing cellular processes. They are therefore ineffective against non-dividing bacteria. […] The integrity of the bacterial membrane is imperative to survival irrespective of metabolic state. […] It completely eradicated cells in 24 h at 10 μM and within 6 h at 20 μM. […]
Antibacterial activity against stationary phase bacteria
MRSA ATCC 33591 was grown to mid-log phase at 37 °C. The bacterial suspension was diluted 1000-fold in nutrient media and allowed to reach stationary phase in 16 h. The bacterial suspension was diluted and spot-plated to determine the bacterial count. The 16 h growth culture was diluted to ~10^6 CFU/mL in PBS. 150 μL of this bacterial suspension was then incubated with 50 μL of test compounds in a 96 well-plate. The compound and bacteria were then incubated at 37 °C for 2h. The suspension was serially diluted 10 fold and spot-plated on […]. The viable bacteria were then counted after 48 h incubation at 37 °C. The results represented are the average of two independent experiments carried in duplicates. […]

Compound | cell wall biosynthesis inhibition (bubbles after acetic acid/methanol fixation) (B. subtilis) | MIC (B. subtilis 168; Bacillus subtilis, 168, 18 h) [µM] | effect on viable stationary phase cells ([1]; 40 μM, 24 h) | time to complete eradication ([1]; 10 μM) [h] | time to complete eradication ([1]; 20 μM) | MIC (B. subtilis 168; Bacillus subtilis, 168, BMM media, 18 h) [µM]
CN[C@H](CC(C)C)C(=O)N[C@H]1C(=O)N[C@@H](CC(N)=O)C(=O)N[C@H]2C(=O)N[C@H]3C(=O)N[C@H](C(=O)N[C@H](C(=O)O)c4cc(O)cc(O)c4-c4cc3ccc4O)[C@H](O)c3ccc(c(Cl)c3)Oc3cc2cc(c3O[C@@H]2O[C@H](CO)[C@@H](O)[C@H](O)[C@H]2O[C@H]2C[C@](C)(N)[C@H](O)[C@H](C)O2)Oc2ccc(cc2Cl)[C@H]1O [Vancomycin, reference compound] | showed bubbles on the surface | 0.2 (≈ 0.29 µg/mL) | did not reduce the number of viable stationary phase cells | – | – | –
CCCCCCCCCCNC(=O)C[N+](C)(C)CCCNC(=O)C1NC(=O)C2NC(=O)C(NC(=O)C3NC(=O)C(CC(N)=O)NC(=O)C(NC(=O)C(CC(C)C)NC)C(O)c4ccc(c(Cl)c4)Oc4cc3cc(c4OC3OC(CO)C(O)C(O)C3OC3CC(C)(N)C(O)C(C)O3)Oc3ccc(cc3Cl)C2O)c2ccc(O)c(c2)-c2c(O)cc(O)cc21 (stereo not shown) [VanQAmC10 (8)] | showed bubbles on the surface | 0.25 | – | 24 | up to 6 h | –
CNC(CC(C)C)C(=O)NC1C(=O)NC(CC(N)=O)C(=O)NC2C(=O)NC3C(=O)NC(C(=O)NC(C(=O)NCCC[N+](C)(C)Cc4ccc(-c5ccccc5)cc4)c4cc(O)cc(O)c4-c4cc3ccc4O)C(O)c3ccc(c(Cl)c3)Oc3cc2cc(c3OC2OC(CO)C(O)C(O)C2OC2CC(C)(N)C(O)C(C)O2)Oc2ccc(cc2Cl)C1O (stereo not shown) [VanQbiph (4)] | showed bubbles on the surface | – | – | – | 24 h | 0.15
